How the values were obtained:
[1] = system: Bovine viral diarrhea (BVD) virus; test: Anti-BVDV CPE inhibition assay in MDBK cells; conditions: for EC50: Bovine viral diarrhea virus isolates and strains, MDBK, in Bos taurus, 96 h; for SI (selectivity index, ratio of CC50 and EC50): CC50/EC50, MDBK cells, BVD virus
[2] = Cytotoxicity in MDBK cells (no BVD virus added); conditions: bovine, MDBK cells (Madin-Darby bovine kidney), no virus added

## Fc1ccccc1-c1cc2cn(Cn3nnc4ccccc43)ccc-2n1 [Compound XVII, 1-{[2-(2-fluorophenyl)-5H-pyrrolo[3,2-c]pyridin-5-yl]methyl}-1H-benzotriazole]
[1]
  EC50: 0.012 ± 0.006 µM
  SI (selectivity index, ratio of CC50 and EC50): 1583
[2]
  CC50 at 4 days: 19 µM

## COc1ncccc1-c1cc2cn(Cc3nc4cc(C)ccc4o3)ccc-2n1 [Compound XXVII, 2-((2-(2-methoxypyridin-3-yl)-5H-pyrrolo[3,2-c]pyridin-5-yl)methyl)-5-methyl-1,3-benzoxazole]
[1]
  EC50: 0.016 ± 0.001 µM
  SI (selectivity index, ratio of CC50 and EC50): 1313
[2]
  CC50 at 4 days: 21 µM

## OCCOc1ccc(F)c(-c2cc3cn(Cn4nnc5ccccc54)ccc-3n2)c1 [Compound XIX, 2-(3-{5-[(1H-benzotriazol-1-yl)methyl]-5H-pyrrolo[3,2-c]pyridin-2-yl}-4-fluorophenoxy)ethan-1-ol]
[1]
  EC50: 0.097 ± 0.015 µM
  SI (selectivity index, ratio of CC50 and EC50): >515
[2]
  CC50 at 4 days: > 50 µM

## Cc1ccc2nc(Cn3ccc4nc(-c5ccccc5F)nc-4c3)sc2c1 [CPD-22, 2-((2-(2-fluorophenyl)-5H-imidazo[4,5-c]pyridin-5-yl)methyl)-6-methylbenzo[d]thiazole]
[1]
  EC50: 0.019 ± 0.005 µM
  SI (selectivity index, ratio of CC50 and EC50): >5263
[2]
  CC50 at 4 days: > 100 µM

## COc1ncccc1-c1cc2cn(Cc3nc4ccc(C)cc4[nH]3)ccc-2n1 [Compound XXXIV, 2-((2-(2-methoxypyridin-3-yl)-5H-pyrrolo[3,2-c]pyridin-5-yl)methyl)-6-methyl-1H-benzoimidazole]
[1]
  EC50: 0.395 ± 0.02 µM
  SI (selectivity index, ratio of CC50 and EC50): >127
[2]
  CC50 at 4 days: > 50 µM

## Fc1cccc(-c2nc3ccn(Cc4cc(-c5cc(F)ccc5F)no4)cc-3n2)c1 [CPD-39, 3-(2,5-difluorophenyl)-5-((2-(3-fluorophenyl)-5H-imidazo[4,5-c]pyridin-5-yl)methyl)isoxazole]
[1]
  EC50: 0.084 ± 0.008 µM
  SI (selectivity index, ratio of CC50 and EC50): >595
[2]
  CC50 at 4 days: > 50 µM

## Cc1ccc2sc(Cn3ccc4nc(-c5cnn(C)c5C)nc-4c3)nc2c1 [CPD-2, 2-((2-(1,5-dimethyl-1H-pyrazol-4-yl)-5H-imidazo[4,5-c]pyridin-5-yl)methyl)-5-methylbenzo[d]thiazole]
[1]
  EC50: 0.079 ± 0.004 µM
  SI (selectivity index, ratio of CC50 and EC50): >633
[2]
  CC50 at 4 days: > 50 µM

## Cc1ccc2nc(Cn3ccc4cc(-c5ccccc5F)nc-4c3)sc2c1 [Compound XI, 2-{[2-(2-fluorophenyl)-6H-pyrrolo[2,3-c]pyridin-6-yl]methyl}-6-methyl-1,3-benzothiazole]
[1]
  EC50: 0.008 µM
  SI (selectivity index, ratio of CC50 and EC50): 500
[2]
  CC50 at 4 days: 4 µM

## Cc1c(-c2nc3ccn(Cc4nc5ccc(Cl)cc5s4)cc-3n2)cnn1C [CPD-5, 6-chloro-2-((2-(1,5-dimethyl-1H-pyrazol-4-yl)-5H-imidazo[4,5-c]pyridin-5-yl)methyl)benzo[d]thiazole]
[1]
  EC50: 0.027 ± 0.027 µM
  SI (selectivity index, ratio of CC50 and EC50): >1852
[2]
  CC50 at 4 days: > 50 µM

## Cc1ccc2nc(Cn3ccc4cc(-c5ccccc5CO)nc-4c3)sc2c1 [Compound XIII, (2-{6-[(6-methyl-1,3-benzothiazol-2-yl)methyl]-6H-pyrrolo[2,3-c]pyridin-2-yl}phenyl)methanol]
[1]
  EC50: 0.009 ± 0.008 µM
  SI (selectivity index, ratio of CC50 and EC50): 2000
[2]
  CC50 at 4 days: 18 µM

## COc1ccccc1-c1cc2cn(Cn3nnc4ccccc43)ccc-2n1 [Compound XX, 1-{[2-(2-methoxyphenyl)-5H-pyrrolo[3,2-c]pyridin-5-yl]methyl}-1H-benzotriazole]
[1]
  EC50: 0.082 µM
  SI (selectivity index, ratio of CC50 and EC50): 476
[2]
  CC50 at 4 days: 39 µM

## Cc1scc(-c2nc3ccn(Cc4cc(-c5cc(F)ccc5F)no4)cc-3n2)c1C [CPD-49, 3-(2,5-difluorophenyl)-5-((2-(4,5-dimethylthiophen-3-yl)-5H-imidazo[4,5-c]pyridin-5-yl)methyl)isoxazole]
[1]
  EC50: 0.409 µM
  SI (selectivity index, ratio of CC50 and EC50): 76
[2]
  CC50 at 4 days: 31 µM

## Cc1ccc2nc(Cn3ccc4nc(-c5ccccc5F)nc-4c3)oc2c1 [CPD-32, 2-((2-(2-fluorophenyl)-5H-imidazo[4,5-c]pyridin-5-yl)methyl)-6-methylbenzo[d]oxazole]
[1]
  EC50: 0.377 ± 0.016 µM
  SI (selectivity index, ratio of CC50 and EC50): >133
[2]
  CC50 at 4 days: > 50 µM

## Cc1ccc2nc(Cn3ccc4nc(-c5ccccc5CO)nc-4c3)sc2c1 [CPD-45, (2-(5-((6-methylbenzo[d]thiazol-2-yl)methyl)-5H-imidazo[4,5-c]pyridin-2-yl)phenyl)methanol]
[1]
  EC50: 0.297 ± 0.107 µM
  SI (selectivity index, ratio of CC50 and EC50): >168
[2]
  CC50 at 4 days: > 50 µM

## COc1ncccc1-c1nc2ccn(Cc3nc4ccc(C)cc4s3)cc-2n1 [CPD-14, 2-((2-(2-methoxypyridin-3-yl)-5H-imidazo[4,5-c]pyridin-5-yl)methyl)-6-methylbenzo[d]thiazole]
[1]
  EC50: 0.02 ± 0.004 µM
  SI (selectivity index, ratio of CC50 and EC50): >2500
[2]
  CC50 at 4 days: > 50 µM

## COc1ncccc1-c1nc2ccn(Cc3nc4cc(C)ccc4s3)cc-2n1 [CPD-15, 2-((2-(2-methoxypyridin-3-yl)-5H-imidazo[4,5-c]pyridin-5-yl)methyl)-5-methylbenzo[d]thiazole]
[1]
  EC50: 0.086 ± 0.004 µM
  SI (selectivity index, ratio of CC50 and EC50): >581
[2]
  CC50 at 4 days: > 50 µM

## Fc1ccccc1-c1nc2ccn(Cn3nnc4ccccc43)cc-2n1 [CPD-38, 1-((2-(2-fluorophenyl)-5H-imidazo[4,5-c]pyridin-5-yl)methyl)-1H-benzo[d][1,2,3]triazole]
[1]
  EC50: 0.336 ± 0.103 µM
  SI (selectivity index, ratio of CC50 and EC50): >149
[2]
  CC50 at 4 days: > 50 µM

## Cc1c(-c2nc3ccn(Cc4nc5ccccc5s4)cc-3n2)cnn1C [CPD-3, 2-((2-(1,5-dimethyl-1H-pyrazol-4-yl)-5H-imidazo[4,5-c]pyridin-5-yl)methyl)benzo[d]thiazole]
[1]
  EC50: 0.078 ± 0.005 µM
  SI (selectivity index, ratio of CC50 and EC50): >641
[2]
  CC50 at 4 days: > 50 µM

## N#Cc1ccc(-c2nc3ccn(Cc4cc(-c5cc(F)ccc5F)no4)cc-3n2)cc1 [CPD-43, 4-(5-((3-(2,5-difluorophenyl)isoxazol-5-yl)methyl)-5H-imidazo[4,5-c]pyridin-2-yl)benzonitrile]
[1]
  EC50: 0.081 ± 0.008 µM
  SI (selectivity index, ratio of CC50 and EC50): >617
[2]
  CC50 at 4 days: > 50 µM

## Cc1ccc2nc(Cn3ccc4nc(-c5ccccc5OC(F)F)nc-4c3)sc2c1 [CPD-21, 2-((2-(2-(difluoromethoxy)phenyl)-5H-imidazo[4,5-c]pyridin-5-yl)methyl)-6-methylbenzo[d]thiazole]
[1]
  EC50: 0.409 µM
  SI (selectivity index, ratio of CC50 and EC50): 76
[2]
  CC50 at 4 days: 31 µM

## Cc1ccc2oc(Cn3ccc4nc(-c5cn(C)nc5C)nc-4c3)nc2c1 [CPD-12, 2-((2-(1,3-dimethyl-1H-pyrazol-4-yl)-5H-imidazo[4,5-c]pyridin-5-yl)methyl)-5-methylbenzo[d]oxazole]
[1]
  EC50: 0.256 ± 0.111 µM
  SI (selectivity index, ratio of CC50 and EC50): >195
[2]
  CC50 at 4 days: > 50 µM

## Cc1ccc2oc(Cn3ccc4cc(-c5ccccc5F)nc-4c3)nc2c1 [Compound IX, 2-{[2-(2-fluorophenyl)-6H-pyrrolo[2,3-c]pyridin-6-yl]methyl}-5-methyl-1,3-benzoxazole]
[1]
  EC50: 0.0012 ± 0.0015 µM
  SI (selectivity index, ratio of CC50 and EC50): 4167
[2]
  CC50 at 4 days: 5 µM

Source: patent US12577242B2, “Pyrrolopyridine and imidazopyridine antiviral compounds” (KATHOLIEKE UNIVERSITEIT LEUVEN, priority 2020, dated 2026)
